Measurements as given in PubChem BioAssay (NCI).
Where “and” joins values, the source holds several entries; their conditions need not be identical. Identical values can stand only once.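 Protocol summary: plate cells (96-well), add compound at 5 concentrations, incubate 48 h, interpolate endpoints linearly. The concentration for 50% growth inhibition is given as GI50. Definition used: TGI = concentration required for complete inhibition of growth.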

What was measured:
Experiment in all cases: inhibition of tumour cell growth, NCI panel, 48 h
NCI-H23 lung = tested on: NCI-H23 lung
RPMI-8226 leukemia = tested on: RPMI-8226 leukemia
NCI-H460 lung = tested on: NCI-H460 lung
TK-10 renal = tested on: TK-10 renal
OVCAR-3 ovarian = tested on: OVCAR-3 ovarian
NCI-H522 lung = tested on: NCI-H522 lung
K-562 leukemia = tested on: K-562 leukemia
MOLT-4 leukemia = tested on: MOLT-4 leukemia
HOP-62 NSCLC = tested on: HOP-62 NSCLC
SF-268 CNS = tested on: SF-268 CNS

Row | SMILES | TGI (NCI-H23 lung) | TGI (RPMI-8226 leukemia) | TGI (NCI-H460 lung) | TGI (TK-10 renal) | TGI (OVCAR-3 ovarian) | TGI (NCI-H522 lung) | TGI (K-562 leukemia) | TGI (MOLT-4 leukemia) | TGI (HOP-62 NSCLC) | TGI (SF-268 CNS) | GI50 (NCI-H23 lung) | GI50 (RPMI-8226 leukemia) | GI50 (TK-10 renal) | GI50 (OVCAR-3 ovarian) | GI50 (NCI-H522 lung) | GI50 (K-562 leukemia) | GI50 (MOLT-4 leukemia)
1 | Nc1c(Cl)ncnc1NCC1(CO)CCC1 | > 100 µM | > 100 µM | > 100 µM | > 100 µM | > 100 µM | > 100 µM | > 100 µM | > 100 µM | > 100 µM | > 100 µM | – | – | – | – | – | – | –
2 | O=C(NC12CC3CC(CC(C3)C1)C2)n1cnc2cncnc21 | > 100 µM | 79.4 µM | > 100 µM | > 100 µM | 47 µM | 53.8 µM | > 100 µM | > 100 µM | 51.5 µM | > 100 µM | – | – | – | – | – | – | –
3 | O=c1[nH]/c(=C/c2cccs2)c(=O)[nH]/c1=C/c1ccc(OCc2ccccc2)cn1 | 1.7 µM | > 43.2 µM | 3.46 µM | 27.4 µM | 0.0382 µM | 0.0998 µM | 27.4 µM | > 35.8 µM | 8.47 µM | > 36.3 µM | – | – | – | – | – | – | –
4 | CCOC(=O)Cn1c(=O)c2cc(C)cc3c(Cl)nc4c(OC)c(OC)cc1c4c32 | > 100 µM | > 100 µM | > 100 µM | > 100 µM | > 100 µM | > 100 µM | > 100 µM | > 100 µM | > 100 µM | > 100 µM | – | – | – | – | – | – | –
5 | COC(=O)/C=C1\C(=O)N(C(C)=O)c2ccccc21 | 28.9 µM | 47.6 µM | 27.1 µM | 21.7 µM | 23 µM | 15.6 µM | > 96.5 µM | 31.4 µM | 30.2 µM | > 61.3 µM | – | – | – | – | – | – | –
6 | CN(C)c1ccc(C(=C2C=CC(=[N+](C)C)C=C2)c2c(O)c(S(=O)(=O)[O-])cc3cc(S(=O)(=O)O)ccc23)cc1 | > 100 µM | > 100 µM | > 100 µM | > 100 µM | > 100 µM | > 100 µM | > 100 µM | > 100 µM | > 100 µM | > 100 µM | – | – | – | – | – | – | –
7 | Cc1cc(C)c2c(=O)n(CC(O)CN3CCN(c4ncccn4)CC3)sc2n1 (stereo unspecified) | 31.6 µM | 44 µM | 31.2 µM | 32.1 µM | 34.5 µM | 26.6 µM | > 100 µM | 22.6 µM | 42 µM | 32.6 µM | – | – | – | – | – | – | –
8 | CC(=O)O/N=C1\C=Cc2c(no[n+]2[O-])C1=O | 35.5 µM | 62 µM | > 100 µM | 29 µM | 30 µM | 32.8 µM | > 100 µM | 36.6 µM | > 100 µM | 38.1 µM | – | – | – | – | – | – | –
9 | C(=C/c1ccc2nc(-c3ccc(/C=C/C=N/NC4=NCCCN4)cc3)cn2c1)/C=N/NC1=NCCCN1 | > 100 µM | > 100 µM | 73.2 µM | > 100 µM | > 100 µM | 34.3 µM | 79.9 µM | > 100 µM | > 100 µM | 54.7 µM | – | – | – | – | – | – | –
10 | CS(=O)(=O)c1nc(-c2cc3c(c(S(C)(=O)=O)n2)CCC3)cc2c1CCC2 | > 100 µM | > 100 µM | > 100 µM | > 100 µM | > 100 µM | > 100 µM | > 100 µM | > 100 µM | > 100 µM | > 100 µM | – | – | – | – | – | – | –
11 | Nc1c2c(nc3ccccc13)-c1ccccc1CCC2 | 37.8 µM | 33.5 µM | 18 µM | 25.2 µM | 29.8 µM | 32.4 µM | 33.8 µM | 33 µM | 22.3 µM | 37.2 µM | – | – | – | – | – | – | –
12 | NCCCCN(CCCN)C(=O)OCc1ccccc1 | > 100 µM | > 100 µM | > 100 µM | > 100 µM | > 100 µM | > 100 µM | > 100 µM | > 100 µM | > 100 µM | > 100 µM | – | – | – | – | – | – | –
13 | CCOC(=O)C(C(N)=O)c1nc2cc([N+](=O)[O-])ccc2nc1/C=C(\O)c1ccc(C)cc1 (stereo unspecified) | 34.3 µM | 40.6 µM | 58.1 µM | 30.2 µM | 31.1 µM | 47.8 µM | 12.1 µM | 1.39 µM | 33.9 µM | 35.8 µM | – | – | – | – | – | – | –
14 | O=c1[nH]c(=O)n(COCCO)cc1-c1ccccc1 | > 100 µM | > 100 µM | > 100 µM | > 100 µM | > 100 µM | > 100 µM | > 100 µM | > 100 µM | > 100 µM | > 100 µM | – | – | – | – | – | – | –
15 | CC1CN=C(c2ccc3c(c2)Cc2cc(C4=NCC(C)N4)ccc2-3)N1 (stereo unspecified) | > 100 µM | 98.7 µM | 86.8 µM | > 100 µM | 53.7 µM | 57.4 µM | > 100 µM | > 100 µM | > 100 µM | 77.7 µM | – | – | – | – | – | – | –
16 | COC(=O)c1ccc2c(c1)CCN2C(=O)c1cc2c(cc1Br)OCO2 | 50 µM and 6.16 µM | – | 50 µM | 37.6 µM and > 100 µM | 3.99 µM and 1.43 µM | 0.4 µM and 0.29 µM | 50 µM and > 100 µM | 12.1 µM and > 100 µM | 50 µM and > 100 µM | 50 µM | 0.746 µM | 1.15 µM | 27.1 µM | 0.363 µM | 0.0801 µM | 0.824 µM | 0.896 µM
17 | C=CCCCN1C(=O)C2C3c4ccccc4C(C=O)(c4ccccc43)C2C1=O (stereo unspecified) | 33 µM | 28.5 µM | 30.3 µM | 30.2 µM | 23.4 µM | 25.7 µM | 17.8 µM | 19.4 µM | 28.2 µM | 59 µM | – | – | – | – | – | – | –
18 | O=C(NCCc1ccc(F)cc1)c1cc(/C=C/c2cc(O)ccc2O)ccc1O | 13.3 µM | > 100 µM | 40 µM | 5.64 µM | 8.44 µM | 4.88 µM | > 29.2 µM | 6.99 µM | 14.8 µM | 12.2 µM | – | – | – | – | – | – | –
19 | C/C(=N\NC(=S)N/N=C(\C)c1ccccn1)c1ccccn1 | > 100 µM | > 100 µM | 6.46 µM | > 100 µM | > 100 µM | > 100 µM | 7.92 µM | 5.9 µM | 5.28 µM | 16.3 µM | – | – | – | – | – | – | –
20 | O=C(O)CC(Cc1ccccc1)C(=O)O (stereo unspecified) | > 100 µM | > 100 µM | > 100 µM | > 100 µM | > 100 µM | > 100 µM | > 100 µM | > 100 µM | > 100 µM | > 100 µM | – | – | – | – | – | – | –
21 | CC(C)OCC(O)COc1cc(=O)oc2ccccc12 (stereo unspecified) | > 100 µM | > 100 µM | > 100 µM | > 100 µM | > 100 µM | > 100 µM | > 100 µM | > 100 µM | > 100 µM | > 100 µM | – | – | – | – | – | – | –
22 | CC12CCC3=C(CSC4=C3CSc3ccccc34)C1=CCCC2=O (stereo unspecified) | > 100 µM | > 100 µM | > 100 µM | > 100 µM | > 100 µM | > 100 µM | > 100 µM | > 100 µM | > 100 µM | > 100 µM | – | – | – | – | – | – | –
23 | c1ccc2c(c1)N=c1ccccc1=P21c2ccccc2Nc2ccccc21 | 5.34 µM | 0.616 µM | 10.7 µM | 8.12 µM | 1.57 µM | 0.913 µM | > 100 µM | 1.67 µM | 8.32 µM | 10.2 µM | – | – | – | – | – | – | –
24 | COc1c2c(cc3oc(=O)ccc13)OC(C)(C)C=C2 | 60.1 µM | 87.6 µM | 62.2 µM | > 125 µM | > 125 µM | 63.9 µM | > 125 µM | 59.1 µM | > 125 µM | > 125 µM | – | – | – | – | – | – | –
25 | CN(CCN(C)Cc1ccc(Cl)c(Cl)c1)CCN1CCCC1 | > 100 µM | 32.4 µM | > 100 µM | > 100 µM | > 100 µM | 46.9 µM | 32.2 µM | > 72.4 µM | > 100 µM | > 100 µM | – | – | – | – | – | – | –
26 | CO/C=C(/C(=O)OC)c1ccccc1[C@H]1C[C@@H]1c1ccc(OC)cc1 | > 100 µM | 58.5 µM | 83 µM | > 100 µM | 49 µM | 25.5 µM | > 100 µM | 74.5 µM | 98 µM | 86.3 µM | – | – | – | – | – | – | –
27 | COC(=O)[C@@]12CC3CN(Cc4c1[nH]c1ccccc41)C2CC3=O | > 100 µM | > 100 µM | > 100 µM | > 100 µM | > 100 µM | > 100 µM | > 100 µM | > 100 µM | > 100 µM | > 100 µM | – | – | – | – | – | – | –
